Test results: patent US9999655B2, “Use of MKS inhibitor peptide-containing compositions for treating non-small cell lung cancer with same” (Moerae Matrix, Inc., priority 2015, dated 2018)
Where no end group is shown, it is not given here.

Columns and labels:
advanced NSCLC = settings: patients with advanced NSCLC; P=0.04; cited from earlier work
266 human kinases = type: biochemical; settings: peptide at 100 μM, 266 human kinases
Procedure: (§1) Every kinase activity measurement was conducted in duplicate.
(§2) IC50 (half maximal inhibitory concentrations) value for the MK2 inhibitor peptides identified below was determined using Millipore's IC50 Profiler Express service. […] Specifically, in these assays, a positively charged substrate is phosphorylated with a radiolabeled phosphate group from an ATP if the kinase is not inhibited by an inhibitor peptide. The positively charged substrate then is attracted to a negatively charged filter membrane, quantified with a scintillation counter, and compared to a 100% activity control.

[1] = biological target: Calcium/Calmodulin-Dependent Protein Kinase I (CaMKI) (Homo sapiens, UniProt Q14012); assay: biochemical; settings: read-out: inhibition of kinase activity of CaMKI
Procedure: as §1, §2

[2] = biological target: (Homo sapiens, UniProt Q15746); type: biochemical; settings: MLCK(h); peptide 100 μM
Procedure: as §1, §2

[3] = biological target: Ca2+/calmodulin-dependent protein kinase II (CaMKII); settings: cited from earlier work

Sequence of Calcium/Calmodulin-Dependent Protein Kinase I (CaMKI) (Q14012 whole entry): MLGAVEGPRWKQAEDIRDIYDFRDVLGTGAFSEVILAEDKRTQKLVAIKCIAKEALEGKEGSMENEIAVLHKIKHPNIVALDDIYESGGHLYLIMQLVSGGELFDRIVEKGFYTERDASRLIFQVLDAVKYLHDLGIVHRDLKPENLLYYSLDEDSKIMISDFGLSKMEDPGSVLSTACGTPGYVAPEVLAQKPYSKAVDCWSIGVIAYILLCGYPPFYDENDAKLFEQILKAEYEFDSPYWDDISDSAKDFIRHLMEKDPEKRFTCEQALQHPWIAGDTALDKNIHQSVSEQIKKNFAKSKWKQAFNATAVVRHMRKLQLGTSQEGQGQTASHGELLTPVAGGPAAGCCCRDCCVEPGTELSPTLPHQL
Sequence of (Homo sapiens, UniProt Q15746) (Q15746 whole entry): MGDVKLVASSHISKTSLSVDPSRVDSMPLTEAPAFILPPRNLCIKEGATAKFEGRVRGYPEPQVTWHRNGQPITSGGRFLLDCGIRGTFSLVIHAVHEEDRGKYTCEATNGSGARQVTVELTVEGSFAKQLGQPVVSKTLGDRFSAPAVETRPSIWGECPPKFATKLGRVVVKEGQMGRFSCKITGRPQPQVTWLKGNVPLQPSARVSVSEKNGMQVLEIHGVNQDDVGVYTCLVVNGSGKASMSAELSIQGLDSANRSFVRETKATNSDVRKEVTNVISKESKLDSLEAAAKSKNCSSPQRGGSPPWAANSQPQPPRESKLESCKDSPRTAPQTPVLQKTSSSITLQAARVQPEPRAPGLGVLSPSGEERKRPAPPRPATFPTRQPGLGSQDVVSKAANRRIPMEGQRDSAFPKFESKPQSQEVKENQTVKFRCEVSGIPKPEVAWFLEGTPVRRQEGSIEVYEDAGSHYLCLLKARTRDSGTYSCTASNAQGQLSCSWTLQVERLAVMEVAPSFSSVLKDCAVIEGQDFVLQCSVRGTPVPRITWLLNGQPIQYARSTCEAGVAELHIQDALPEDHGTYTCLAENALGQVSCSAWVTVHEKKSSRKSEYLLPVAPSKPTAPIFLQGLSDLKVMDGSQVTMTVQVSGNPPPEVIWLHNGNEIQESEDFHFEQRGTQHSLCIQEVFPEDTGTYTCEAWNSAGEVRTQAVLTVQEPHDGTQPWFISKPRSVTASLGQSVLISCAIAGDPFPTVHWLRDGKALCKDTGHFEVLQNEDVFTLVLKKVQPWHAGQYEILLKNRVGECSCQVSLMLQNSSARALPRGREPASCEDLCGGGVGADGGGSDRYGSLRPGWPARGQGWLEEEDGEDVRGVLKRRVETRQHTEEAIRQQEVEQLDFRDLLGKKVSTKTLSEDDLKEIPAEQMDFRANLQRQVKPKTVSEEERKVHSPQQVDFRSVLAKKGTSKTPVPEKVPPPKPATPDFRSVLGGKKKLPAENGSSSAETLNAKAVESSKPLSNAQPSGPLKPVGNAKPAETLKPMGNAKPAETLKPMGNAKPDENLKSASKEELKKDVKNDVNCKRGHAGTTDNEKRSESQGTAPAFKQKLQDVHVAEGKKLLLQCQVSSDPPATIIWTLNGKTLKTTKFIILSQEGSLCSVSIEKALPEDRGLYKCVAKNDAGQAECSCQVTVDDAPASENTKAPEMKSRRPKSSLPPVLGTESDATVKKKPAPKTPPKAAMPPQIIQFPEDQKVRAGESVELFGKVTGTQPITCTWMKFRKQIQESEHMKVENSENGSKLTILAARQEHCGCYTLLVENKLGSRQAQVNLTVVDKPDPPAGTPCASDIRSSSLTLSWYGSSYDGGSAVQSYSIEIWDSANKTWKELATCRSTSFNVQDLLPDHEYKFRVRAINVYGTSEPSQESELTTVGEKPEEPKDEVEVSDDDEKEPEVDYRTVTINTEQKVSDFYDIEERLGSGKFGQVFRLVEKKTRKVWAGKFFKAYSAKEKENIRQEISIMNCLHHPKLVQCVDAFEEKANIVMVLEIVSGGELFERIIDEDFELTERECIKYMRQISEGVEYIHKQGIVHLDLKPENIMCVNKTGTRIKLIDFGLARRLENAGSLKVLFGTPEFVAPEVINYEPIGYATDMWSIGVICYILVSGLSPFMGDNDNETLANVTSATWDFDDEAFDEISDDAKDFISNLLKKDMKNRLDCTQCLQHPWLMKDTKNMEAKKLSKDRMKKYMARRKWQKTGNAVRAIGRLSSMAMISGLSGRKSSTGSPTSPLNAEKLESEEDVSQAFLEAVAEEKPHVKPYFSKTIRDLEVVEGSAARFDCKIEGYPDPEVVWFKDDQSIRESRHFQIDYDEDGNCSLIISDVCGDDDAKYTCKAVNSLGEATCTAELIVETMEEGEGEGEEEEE

Substance	off-target kinase inhibition (specificity) (266 human kinases)	further results
cisplatin/vinorelbine		overall survival (advanced NSCLC): 10.1 months
HRRIKAWLKKIKALARQLGVAA (Mammalian) [MMI-0500]	very limited off-target kinase inhibition	
YARAAARQARAKALNRQLGVA (Mammalian) [MMI-0200]	very limited off-target kinase inhibition	
FAKLAARLYRKALARQLGVAA [MMI-0300]	very limited off-target kinase inhibition	
YARAAARQARAKALARQLGVAA [MMI-0100]		inhibition at 100 µM [1]: > 65%; % activity [2]: 85%
autocamtide-2 related inhibitory peptide [AIP]		IC50 [3]: 100 nM
KAFAKLAARLYRKALARQLGVAA [MMI-0400]	very limited off-target kinase inhibition	
